In general, IC50 refers to the midpoint of a concentration-inhibition curve. Low readings indicate greater potency, high ones weaker potency.

Each structure is given as a SMILES string.

Our source for the IC50 values is patent US6048854A, “2,3-diaminopropionic acid derivative” (Sumitomo Pharmaceuticals Company, Limited, priority 1993, dated 2000).

The test system of the first assay is platelet aggregation. Description: Platelet aggregation inhibitory activity (ADP-induced, human platelet rich plasma). It is filed as cell-based. The note with it: Homo sapiens, Table 2, same manner as Example 17. The method, then:
The blood was collected from the elbow vein of a normal volunteer with mixing thereof with 1/10 volume of 3.8% sodium citrate, and the blood was centrifuged at 1000 rpm (150 g) for 10 minutes to give the supernatant as platelet rich plasma (PRP). To PRP (200 μl) was added a test compound solution (2 μl), and the mixture was incubated with stirring at 1000 rpm at 37° C. for two minutes, and thereto was added a platelet aggregator, adenosine diphosphate (ADP, 22 μl) at a final concentration of 3 μg/ml. The platelet aggregation activity was determined by nephelometric analysis using a Hematracer (manufactured by Niko Bioscience, Ltd.). The test results of platelet aggregation inhibitory activity are expressed by IC50, which is a concentration of the test compound being required to inhibit the platelet aggregation reaction by 50%.
The compounds of Examples 18 to 70 were tested in the same manner as in Example 17.
The compounds of Examples 72 to 116 were tested in the same manner as in Example 17.
The compound `Cc1ccccc1S(=O)(=O)N[C@@H](CNC(=O)CCNC(=O)CCC1CCNCC1)C(=O)O` [Example 24, (2S)-2-(2-methyl)benzenesulfonylamino-3-(3-(3-(4-piperidyl)propanoylamino)propanoylamino)propanoic Acid] gave an IC50 of 0.03 µM. Still for that read-out and setting: next, `Cc1cccc(S(=O)(=O)N[C@@H](CNC(=O)CCNC(=O)CCC2CCNCC2)C(=O)O)c1` [Example 25, (2S)-2-(3-methyl)benzenesulfonylamino-3-(3-(3-(4-piperidyl)propanoylamino)propanoylamino)propanoic Acid]: 0.022 µM; `Cc1ccc(S(=O)(=O)N[C@@H](CNC(=O)CCNC(=O)CCC2CCNCC2)C(=O)O)cc1` [Example 26, (2S)-2-(4-methyl)benzenesulfonylamino-3-(3-(3-(4-piperidyl)propanoylamino)propanoylamino)propanoic Acid]: 0.029 µM. Still for that read-out and setting: under `O=C(CCC1CCNCC1)NCCC(=O)NC[C@H](NS(=O)(=O)c1ccccc1C(F)(F)F)C(=O)O` [Example 27] stands 0.026 µM. On the same count and under the same terms, under `O=C(CCC1CCNCC1)NCCC(=O)NC[C@H](NS(=O)(=O)c1cccc(C(F)(F)F)c1)C(=O)O` [Example 28, (2S)-3-(3-(3-(4-piperidyl)propanoylamino)propanoylamino)-2-(3-trifluoromethyl)benzenesulfonylaminopropanoic Acid] stands 0.058 µM; under `O=C(CCC1CCNCC1)NCCC(=O)NC[C@H](NS(=O)(=O)c1ccc(C(F)(F)F)cc1)C(=O)O` [Example 29, (2S)-3-(3-(3-(4-piperidyl)propanoylamino)propanoylamino)-2-(4-trifluoromethyl)benzenesulfonylaminopropanoic Acid], 0.17 µM; under `O=C(CCC1CCNCC1)NCCC(=O)NC[C@H](NS(=O)(=O)c1ccccc1[N+](=O)[O-])C(=O)O` [Example 30, (2S)-2-(2-nitro)benzenesulfonylamino-3-(3-(3-(4-piperidyl)propanoylamino)propanoylamino)propanoic Acid], 0.016 µM. `O=C(CCC1CCNCC1)NCCC(=O)NC[C@H](NS(=O)(=O)c1cccc([N+](=O)[O-])c1)C(=O)O` [Example 31, (2S)-2-(3-nitro)benzenesulfonylamino-3-(3-(3-(4-piperidyl)propanoylamino)propanoylamino)propanoic Acid] gave an IC50 of 0.142 µM.

With `O=C(CCC1CCNCC1)NCCC(=O)NC[C@H](NS(=O)(=O)c1ccc([N+](=O)[O-])cc1)C(=O)O` [Example 32, (2S)-2-(4-nitro)benzenesulfonylamino-3-(3-(3-(4-piperidyl)propanoylamino)propanoylamino)propanoic Acid], the IC50 was 0.151 µM. Compound `Cc1cc(C)c(S(=O)(=O)N[C@@H](CNC(=O)CCNC(=O)CCC2CCNCC2)C(=O)O)c(C)c1` [Example 33, (2S)-3-(3-(3-(4-piperidyl)propanoylamino)propanoylamino)-2-(2,4,6-trimethyl)benzenesulfonylaminopropanoic Acid] displayed a half-inhibitory concentration (IC50) of 0.015 µM.

Compound `O=C(CCC1CCNCC1)NCCC(=O)NC[C@H](NS(=O)(=O)c1c(F)c(F)c(F)c(F)c1F)C(=O)O` [Example 34, (2S)-2-(2,3,4,5,6-pentafluoro)benzenesulfonylamino-3-(3-(3-(4-piperidyl)propanoylamino)propanoylamino)propanoic Acid] returned an IC50 of 0.126 µM. In turn, `O=C(CCC1CCNCC1)NCCC(=O)NC[C@H](NS(=O)(=O)c1ccc(F)cc1)C(=O)O` [Example 35, (2S)-2-(4-fluoro)benzenesulfonylamino-3-(3-(3-(4-piperidyl)propanoylamino)propanoylamino)propanoic Acid] showed an IC50 of 0.025 µM. As for `O=C(CCC1CCNCC1)NCCC(=O)NC[C@H](NS(=O)(=O)c1ccc(Cl)cc1)C(=O)O` [Example 36, (2S)-2-(4-chloro)benzenesulfonylamino-3-(3-(3-(4-piperidyl)propanoylamino)propanoylamino)propanoic Acid], it took 0.062 µM to reach half-maximal inhibition (IC50). On the same count and under the same terms, under `O=C(CCC1CCNCC1)NCCC(=O)NC[C@H](NS(=O)(=O)c1ccc(Br)cc1)C(=O)O` [Example 37, (2S)-2-(4-bromo)benzenesulfonylamino-3-(3-(3-(4-piperidyl)propanoylamino)propanoylamino)propanoic Acid] stands 0.048 µM; under `CCc1ccc(S(=O)(=O)N[C@@H](CNC(=O)CCNC(=O)CCC2CCNCC2)C(=O)O)cc1` [Example 38, (2S)-2-(4-ethyl)benzenesulfonylamino-3-(3-(3-(4-piperidyl)propanoylamino)propanoylamino)propanoic Acid], 0.035 µM. As for `CC(C)(C)c1ccc(S(=O)(=O)N[C@@H](CNC(=O)CCNC(=O)CCC2CCNCC2)C(=O)O)cc1` [Example 39, (2S)-2-(4-t-butyl)benzenesulfonylamino-3-(3-(3-(4-piperidyl)propanoylamino)propanoylamino)propanoic Acid], 0.185 µM corresponded to half-maximal inhibition (IC50). The same measure, in the same setting: under `COc1ccc(S(=O)(=O)N[C@@H](CNC(=O)CCNC(=O)CCC2CCNCC2)C(=O)O)cc1` [Example 40, (2S)-2-(4-methoxy)benzenesulfonylamino-3-(3-(3-(4-piperidyl)propanoylamino)propanoylamino)propanoic Acid] stands 0.003 µM; under `O=C(CCC1CCNCC1)NCCC(=O)NC[C@H](NS(=O)(=O)c1cccc2ccccc12)C(=O)O` [Example 41, (2S)-2-(1-naphthalene)sulfonylamino-3-(3-(3-(4-piperidyl)propanoylamino)propanoylamino)propanoic Acid], 0.035 µM.

The assay is the same for the next values; noted with them: Table 1, human PRP, ADP 3 μg/ml, 37° C.
For `CCCCS(=O)(=O)N[C@@H](CNC(=O)CCNC(=O)CCC1CCNCC1)C(=O)O` [Example 3, (2S)-2-butanesulfonylamino-3-(3-(3-(4-piperidyl)propanoylamino)propanoylamino)propanoic Acid], the IC50 amounted to 0.162 µM. In turn, `O=C(CCC1CCNCC1)NCCC(=O)NC[C@H](NC(=O)OCc1ccccc1)C(=O)O` [Example 4, (2S)-2-Benzyloxycarbonylamino-3-(3-(3-(4-piperidyl)propanoylamino)propanoylamino)propanoic Acid] came in with an IC50 of 0.513 µM. The same measure, in the same setting: next, `CCCCS(=O)(=O)N[C@@H](CNC(=O)CNC(=O)CCCC1CCNCC1)C(=O)O` [Example 5, (2S)-2-butanesulfonylamino-3-(N-(4-(4-piperidyl)butanoyl)glycylamino)propanoic Acid]: 2.99 µM; `O=C(CCC(=O)NC[C@H](NS(=O)(=O)c1ccccc1)C(=O)O)NCCC1CCNCC1` [Example 6, (2S)-2-benzenesulfonylamino-3-(N-(2-(4-piperidyl)ethyl)succinamylamino)propanoic Acid]: 0.376 µM. Still for that read-out and setting: next, `CCCCS(=O)(=O)N[C@@H](CNC(=O)CNC(=O)[C@H](C)N(C)C(=O)CCC1CCNCC1)C(=O)O` [Example 7, (2S)-2-butanesulfonylamino-3-(N-(3-(4-piperidyl)propanoyl)-N-methyl-L-alanylglycylamino)propanoic Acid]: 1.22 µM; `CCCCS(=O)(=O)N[C@@H](CNC(=O)CNC(=O)CCCCCC1CCNCC1)C(=O)O` [Example 8, (2S)-2-butanesulfonylamino-3-(N-(6-(4-piperidyl)hexanoyl)glycylamino)propanoic Acid]: 0.583 µM; `CCCCS(=O)(=O)N[C@H](CNC(=O)CCNC(=O)CCC1CCNCC1)C(=O)O` [Example 9, (2R)-2-butanesulfonylamino-3-(3-(3-(4-piperidyl)propanoylamino)propanoylamino)propanoic Acid]: 3.63 µM.

As to `O=C(CCC1CCNCC1)NCCC(=O)NC[C@H](NS(=O)(=O)Cc1ccccc1)C(=O)O` [Example 10, (2S)-2-benzylsulfonylamino-3-(3-(3-(4-piperidyl)propanoylamino)propanoylamino)propanoic Acid], the IC50 worked out at 0.232 µM.

For the compound `CCCCC(=O)N[C@@H](CNC(=O)CCNC(=O)CCC1CCNCC1)C(=O)O` [Example 11, (2S)-2-pentanoylamino-3-(3-(3-(4-piperidyl)propanoylamino)propanoylamino)propanoic Acid], the IC50 worked out at 8.73 µM. Same read-out and setting: next, `CCCCS(=O)(=O)N[C@@H](CNC(=O)CNC(=O)CCCCC1CCNCC1)C(=O)O` [Example 12, (2S)-2-butanesulfonylamino-3-(N-(5-(4-piperidyl)pentanoyl)glycylamino)propanoic Acid]: 1.37 µM; `CCCCS(=O)(=O)N[C@@H](CNC(=O)CCNC(=O)CCCCC1CCNCC1)C(=O)O` [Example 13, (2S)-2-butanesulfonylamino-3-(3-(5-(4-piperidyl)pentanoylamino)propanoylamino)propanoic Acid]: 1.81 µM.

In the case of `CCCCS(=O)(=O)N[C@@H](CNC(=O)CNC(=O)[C@H](Cc1ccc(OC)cc1)NC(=O)CCC1CCNCC1)C(=O)O` [Example 14, (2S)-2-butanesulfonylamino-3-(N-(3-(4-piperidyl)propanoyl)-O-methyl-L-tyrosylglycylamino)propanoic Acid], the IC50 is 6.14 µM. The same measure, in the same setting: next, `CCCCS(=O)(=O)N[C@@H](CNC(=O)CNC(=O)[C@H](C)NC(=O)CCC1CCNCC1)C(=O)O` [Example 15, (2S)-2-butanesulfonylamino-3-(N-(3-(4-piperidyl)propanoyl)-L-alanylglycylamino)propanoic Acid]: 5.24 µM; `COc1ccc(C[C@H](NC(=O)CCC2CCNCC2)C(=O)NCC(=O)NC[C@H](NS(C)(=O)=O)C(=O)O)cc1` [Example 16, (2S)-2-methanesulfonylamino-3-(N-(3-(4-piperidyl)propanoyl)-O-methyl-L-tyrosylglycylamino)propanoic Acid]: 2.53 µM.
